Results as given in ChEMBL document CHEMBL5604063, “ASAP - DENV-2 NS2B-NS3 protease fluorescence dose response” (2024).
“And” between values parts separate entries of the source, which are not always exact repeats. Equal values may be shown once.

Target: Genome polyprotein (dengue virus type 2, UniProt P29990)
Format: functional, Thailand/16681/1984

Sequence of Genome polyprotein (P29990 1346-1475 limits assumed): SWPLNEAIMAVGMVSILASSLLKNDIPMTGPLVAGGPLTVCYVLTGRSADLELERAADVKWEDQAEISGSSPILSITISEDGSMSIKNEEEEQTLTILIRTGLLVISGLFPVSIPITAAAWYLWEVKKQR
Sequence of Genome polyprotein (P29990 1476-2093 limits assumed): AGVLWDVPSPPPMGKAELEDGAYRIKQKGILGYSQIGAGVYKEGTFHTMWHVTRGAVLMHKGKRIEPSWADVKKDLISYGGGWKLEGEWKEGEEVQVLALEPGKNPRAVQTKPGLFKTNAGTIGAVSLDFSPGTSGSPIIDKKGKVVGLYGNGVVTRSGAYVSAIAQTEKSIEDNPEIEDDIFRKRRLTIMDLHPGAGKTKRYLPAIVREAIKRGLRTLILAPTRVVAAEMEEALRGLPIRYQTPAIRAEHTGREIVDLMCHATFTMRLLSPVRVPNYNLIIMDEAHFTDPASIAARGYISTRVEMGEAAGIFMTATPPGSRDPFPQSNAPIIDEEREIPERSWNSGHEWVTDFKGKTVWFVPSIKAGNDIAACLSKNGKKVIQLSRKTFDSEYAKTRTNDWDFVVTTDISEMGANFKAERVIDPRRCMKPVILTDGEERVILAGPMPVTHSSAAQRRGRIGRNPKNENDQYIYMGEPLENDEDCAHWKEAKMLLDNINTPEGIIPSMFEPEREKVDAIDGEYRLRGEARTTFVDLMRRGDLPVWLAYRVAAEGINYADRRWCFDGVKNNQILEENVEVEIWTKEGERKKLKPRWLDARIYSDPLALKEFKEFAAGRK

SMILES: CCn1nc(C)c(CN(C)Cc2ccc3c(c2)CCNCC3)c1C
- IC50: > 99.5 µM

SMILES: CC[C@@H](C)c1nc(C)cc(N2CCC(n3ncc(N)c3C(F)(F)F)CC2)n1
- IC50: > 99.5 µM

SMILES: CCc1cc(F)ccc1CC(=O)N1CCCc2cc(CCN)ccc21
- IC50: > 99.5 µM

SMILES: O=C(O)c1cc(Cl)ccc1NS(=O)(=O)c1ccc(OCc2ccncc2)cc1
- IC50: > 99.5 µM

SMILES: Cc1noc(C)c1C(=O)N[C@@H](C(=O)Nc1cccc(CN)c1)c1ccc(OCc2ccccc2)cc1
- IC50: > 99.5 µM

SMILES: Cc1cc(C)c([C@@H](NC(=O)OCc2ccccc2)C(=O)Nc2cccc(CN)c2)c(C)c1
- IC50: > 99.5 µM

SMILES: O=C(NCCO)c1cc(Cl)ccc1NS(=O)(=O)c1ccc(Oc2ccccc2Cl)cc1
- IC50: 68 µM

SMILES: Cn1cc(C(=O)N[C@@H](C(=O)Nc2cccc(CN)c2)c2ccc(OCc3ccccc3)cc2)cn1
- IC50: > 99.5 µM

SMILES: CCc1cc(COc2ccc(S(=O)(=O)Nc3ccc(Cl)cc3C(=O)O)cc2)no1
- IC50: 45.5 µM

SMILES: O=Cc1ccc(F)c(C(=O)N2CCN(C3=NCCCN3)CC2)c1
- IC50: > 99.5 µM

SMILES: CCn1cnnc1COc1ccc(S(=O)(=O)Nc2ccc(Cl)cc2C(=O)O)cc1
- IC50: > 99.5 µM

SMILES: N[C@H]1CCc2cc(-c3ccn(-c4ccccc4)n3)ccc2C1
- IC50: > 99.5 µM

SMILES: CCc1ccccc1COc1ccc(S(=O)(=O)Nc2ccc(Cl)cc2C(=O)O)cc1
- IC50: 6.5 µM

SMILES: Cc1ccc(F)c2c1CCN(Cc1ccn(C3CNC3)c1)C2
- IC50: > 99.5 µM

SMILES: COc1ccc(CNC(=O)[C@@H](NC(=O)OCc2ccccc2)c2ccc(OCc3ccccc3)cc2)cn1
- IC50: > 99.5 µM

SMILES: CCn1nccc1-c1cccc([C@@H](NC(=O)OCc2ccccc2)C(=O)Nc2cccc(CN)c2)c1
- IC50: > 99.5 µM

SMILES: CC(C)(C)c1cc(N2CCN(c3cccc4[nH]ncc34)CC2)nc(C(=O)O)n1
- IC50: > 99.5 µM

SMILES: NCCNC(=O)c1cc(Cl)ccc1NS(=O)(=O)c1ccc(Oc2ccccc2Cl)cc1
- IC50: > 99.5 µM

SMILES: Cc1ocnc1COc1ccc(S(=O)(=O)Nc2ccc(Cl)cc2C(=O)O)cc1
- IC50: > 99.5 µM

SMILES: O=C(N[C@@H](C(=O)NCc1cn[nH]c1)c1ccc(OCc2ccccc2)cc1)OCc1ccccc1
- IC50: > 99.5 µM

SMILES: O=C(O)c1cc(Cl)ccc1NS(=O)(=O)c1ccc(OCc2nnnn2C2CCC2)cc1
- IC50: > 99.5 µM

SMILES: COC(=O)[C@@H](C)NC(=O)c1cc(Cl)ccc1NS(=O)(=O)c1ccc(Oc2ccccc2Cl)cc1
- IC50: 39 µM

SMILES: O=C(O)c1cc(Cl)ccc1NS(=O)(=O)c1ccc(OCc2cncnc2)cc1
- IC50: > 99.5 µM

SMILES: Cc1cccnc1COc1ccc(S(=O)(=O)Nc2ccc(Cl)cc2C(=O)O)cc1
- IC50: > 99.5 µM

SMILES: O=C(N[C@@H](C(=O)NCc1cnccn1)c1ccc(OCc2ccccc2)cc1)OCc1ccccc1
- IC50: > 99.5 µM

SMILES: N#Cc1c(C(F)F)cccc1N1CCC(n2ncc(N)c2C(F)(F)F)CC1
- IC50: > 99.5 µM

SMILES: O=C(N[C@@H](C(=O)Nc1ccncc1)c1ccc(OCc2ccccc2)cc1)OCc1ccccc1
- IC50: > 99.5 µM

SMILES: O=C(O)c1cc(Cl)ccc1NS(=O)(=O)c1ccc(OCc2ccccn2)cc1
- IC50: > 99.5 µM

SMILES: Cc1cc(F)cc(N(C)C(=O)c2ccc(C3(CN)CC3)cc2)c1
- IC50: > 99.5 µM

SMILES: N[C@H]1CC[C@H](NC(=O)[C@@H](NC(=O)OCc2ccccc2)c2ccc(OCc3ccccc3)cc2)CC1
- IC50: > 99.5 µM

SMILES: NCc1ccnc(CNC(=O)[C@@H](NC(=O)OCc2ccccc2)c2ccc(OCc3ccccc3)cc2)c1
- IC50: > 99.5 µM

SMILES: Cc1n[nH]cc1CC(=O)N1CCCC12CCN(C(=O)c1ccnc(CO)c1)CC2
- IC50: > 99.5 µM

SMILES: NCc1cccc(NC(=O)[C@@H](NC(=O)OCc2ccccc2)c2ccc(C(F)(F)F)cc2)c1
- IC50: 64.3 µM

SMILES: CC[C@H]1CN(C(=O)c2ccc(C3(CN)CC3)cc2)Cc2ccccc21
- IC50: > 99.5 µM

SMILES: CN1CCN(Cc2ccccc2CNC(=O)[C@@H](NC(=O)OCc2ccccc2)c2ccc(OCc3ccccc3)cc2)CC1
- IC50: > 99.5 µM

SMILES: Cc1ccc2c(c1)CN(C(=O)c1ccc(C3(CN)CC3)cc1)C(C)(C)C2
- IC50: > 99.5 µM

SMILES: Cc1ncccc1-c1ccc([C@@H](NC(=O)OCc2ccccc2)C(=O)Nc2cccc(CN)c2)cc1
- IC50: > 99.5 µM

SMILES: O=C(N[C@@H](C(=O)Nc1ccc2c(n1)CNC2)c1ccc(OCc2ccccc2)cc1)OCc1ccccc1
- IC50: > 99.5 µM

SMILES: NCc1cccc(NC(=O)[C@@H]2Cc3ccc(OCc4ccccc4)cc3CN2C(=O)OCc2ccccc2)c1
- IC50: 86.7 µM

SMILES: NCC1(c2ccc(C(=O)N3CCc4scc(Br)c4C3)cc2)CC1
- IC50: > 99.5 µM

SMILES: NCc1cccc(CNC(=O)[C@@H](NC(=O)OCc2ccccc2)c2ccc(OCc3ccccc3)cc2)n1
- IC50: > 99.5 µM

SMILES: O=C(O)c1cc(Cl)cc(F)c1NS(=O)(=O)c1ccc(Oc2ccccc2Cl)cc1
- IC50: 18.6 µM

SMILES: CCOCCNC(=O)c1cc(Cl)ccc1NS(=O)(=O)c1ccc(Oc2ccccc2Cl)cc1
- IC50: 20 µM and 20.5 µM

SMILES: NCCc1ccc(CNC(=O)[C@@H](NC(=O)OCc2ccccc2)c2ccc(OCc3ccccc3)cc2)cc1
- IC50: 21.2 µM and 21.7 µM

SMILES: Cn1c(C(=O)N2CCCc3ccc(C(F)F)cc32)cc2c1CCNC2
- IC50: > 99.5 µM

SMILES: NCCCc1ccc(C(=O)N2CC(c3cccc(Br)c3)C2)cc1
- IC50: > 99.5 µM

SMILES: N[C@H]1CC[C@H](CNC(=O)[C@@H](NC(=O)OCc2ccccc2)c2ccc(OCc3ccccc3)cc2)CC1
- IC50: > 99.5 µM

SMILES: Cc1ccc(CNC(=O)[C@@H](NC(=O)OCc2ccccc2)c2ccc(OCc3ccccc3)cc2)cn1
- IC50: > 99.5 µM

SMILES: CN(C(=O)c1ccc2c(c1)[C@H](CN)CCC2)C1CCN(CC(F)F)CC1
- IC50: > 99.5 µM

SMILES: NCc1cccc(NC(=O)[C@@H](NC(=O)c2cccnc2)c2ccc(OCc3ccccc3)cc2)c1
- IC50: > 99.5 µM

SMILES: Cc1cc(C=O)c(O)c(C(=O)N2CC[C@H](CN(C)C)C2)c1
- IC50: > 99.5 µM

SMILES: C[C@@H](Oc1ccc(S(=O)(=O)Nc2ccc(Cl)cc2C(=O)O)cc1)c1ccccc1F
- IC50: 8.2 µM

SMILES: CC(C)CNC(=O)c1cc(Cl)ccc1C=Cc1ccc(Oc2ccccc2Cl)cc1
- IC50: > 99.5 µM

SMILES: Cc1n[nH]c2cc(C(=O)N3CCC(C)(NC(=O)[C@H]4C[C@H](N(C)C)C4)CC3)ccc12
- IC50: > 99.5 µM

SMILES: NCc1ccc(CNC(=O)[C@@H](NC(=O)OCc2ccccc2)c2ccc(OCc3ccccc3)cc2)cc1
- IC50: 16 µM and 8.53 µM and 8.03 µM

SMILES: NCc1ccccc1C1CCN(C(=O)[C@@]23CNC[C@]2(C(F)(F)F)C3)CC1
- IC50: > 99.5 µM

SMILES: O=C(N[C@@H](C(=O)NCc1ccc(CN2CCCC2)cc1)c1ccc(OCc2ccccc2)cc1)OCc1ccccc1
- IC50: > 99.5 µM

SMILES: O=C(N[C@H](C(=O)NCc1ccccc1CO)c1ccc(OCc2ccccc2)cc1)OCc1ccccc1
- IC50: > 99.5 µM

SMILES: O=C(N[C@@H](C(=O)NCc1cccc(CN2CCCCC2)c1)c1ccc(OCc2ccccc2)cc1)OCc1ccccc1
- IC50: > 99.5 µM

SMILES: O=C(NC1CCCCC1)c1cc(Cl)ccc1NS(=O)(=O)c1ccc(Oc2ccccc2Cl)cc1
- IC50: 13.7 µM

SMILES: Cc1cc(-c2cccc([C@@H](NC(=O)OCc3ccccc3)C(=O)Nc3cccc(CN)c3)c2)ccn1
- IC50: > 99.5 µM

SMILES: NCc1ccccc1C1CCN(C(=O)[C@H]2CCN3CC[C@H]2C3)CC1
- IC50: > 99.5 µM

SMILES: NCc1cccc(NC(=O)[C@H]2c3ccc(Br)cc3OCCN2C(=O)OCc2ccccc2)c1
- IC50: > 99.5 µM

SMILES: NC[C@H]1CC[C@@H](CNC(=O)[C@@H](NC(=O)OCc2ccccc2)c2ccc(OCc3ccccc3)cc2)CC1
- IC50: 85.6 µM

SMILES: Cc1ccc([C@@H](NC(=O)OCc2ccccc2)C(=O)Nc2cccc(CN)c2)cc1C
- IC50: > 99.5 µM

SMILES: CS(=O)(=O)NCc1cccc(CNC(=O)[C@@H](NC(=O)OCc2ccccc2)c2ccc(OCc3ccccc3)cc2)c1
- IC50: > 99.5 µM

SMILES: C[C@@H](O)c1cccc(N2CCC(c3nc(N)ncc3F)CC2)n1
- IC50: > 99.5 µM

SMILES: CN(C)C(=O)[C@@H](NC(=O)OCc1ccccc1)c1ccc(OCc2ccccc2)cc1
- IC50: > 99.5 µM

SMILES: CCCCCN(C)C(=O)c1cc(Cl)ccc1NS(=O)(=O)c1ccc(Oc2ccccc2Cl)cc1
- IC50: 17.8 µM

SMILES: O=C(O)c1cc(Cl)ccc1NS(=O)(=O)c1ccc(OCc2cccnc2)cc1
- IC50: > 99.5 µM

SMILES: CN(C)CCc1ccc(CNC(=O)[C@@H](NC(=O)OCc2ccccc2)c2ccc(OCc3ccccc3)cc2)cc1
- IC50: > 99.5 µM

SMILES: O=C(N[C@H](C(=O)NCc1cccc(CO)n1)c1ccc(OCc2ccccc2)cc1)OCc1ccccc1
- IC50: > 99.5 µM

SMILES: O=C(N[C@@H](C(=O)NCc1cccc2c1CCNC2)c1ccc(OCc2ccccc2)cc1)OCc1ccccc1
- IC50: 53.5 µM

SMILES: O=C(N[C@H](C(=O)NCc1cccc(CO)c1)c1ccc(OCc2ccccc2)cc1)OCc1ccccc1
- IC50: > 99.5 µM

SMILES: C[C@@H](NC(=O)C1CCN(c2cccc(C(N)=O)n2)CC1)[C@H]1CCCNC1
- IC50: > 99.5 µM

SMILES: C[C@@H](NC(=O)c1cc(Cl)ccc1NS(=O)(=O)c1ccc(Oc2ccccc2Cl)cc1)C(=O)O
- IC50: > 99.5 µM

SMILES: Cc1cc(CNC(=O)[C@@H](NC(=O)OCc2ccccc2)c2ccc(OCc3ccccc3)cc2)cc(C)n1
- IC50: > 99.5 µM

SMILES: NC[C@H]1CC[C@H](NC(=O)[C@@H](NC(=O)OCc2ccccc2)c2ccc(OCc3ccccc3)cc2)CC1
- IC50: > 99.5 µM

SMILES: CCN(CC(=O)NC)C(=O)c1cc(Cl)ccc1NS(=O)(=O)c1ccc(Oc2ccccc2Cl)cc1
- IC50: 70 µM

SMILES: N[C@@H](Cc1c[nH]cn1)C(=O)N1CCC2(CC1)OCCc1cc(O)ccc12
- IC50: > 99.5 µM

SMILES: NCc1ccc2c(c1)CCC[C@H]2NCc1cc(Cl)cc2c1OCC2
- IC50: > 99.5 µM

SMILES: O=C(N[C@@H](C(=O)NCC1CCNCC1)c1ccc(OCc2ccccc2)cc1)OCc1ccccc1
- IC50: > 99.5 µM

SMILES: NC[C@H]1CC[C@H](CNC(=O)[C@@H](NC(=O)OCc2ccccc2)c2ccc(OCc3ccccc3)cc2)CC1
- IC50: > 99.5 µM

SMILES: O=C(N[C@@H](C(=O)Nc1ccccn1)c1ccc(OCc2ccccc2)cc1)OCc1ccccc1
- IC50: > 99.5 µM

SMILES: CCn1ccnc(N2CC(=O)[C@@H](c3c[nH]c4ccccc34)C2)c1=O
- IC50: > 99.5 µM

SMILES: NCc1cccc(NC(=O)[C@H]2c3ccc(Br)cc3CCN2C(=O)OCc2ccccc2)c1
- IC50: > 99.5 µM

SMILES: CN1CCN(Cc2cccc(CNC(=O)[C@@H](NC(=O)OCc3ccccc3)c3ccc(OCc4ccccc4)cc3)c2)CC1
- IC50: > 99.5 µM

SMILES: O=S(=O)(Nc1ccc(Cl)cc1CN(CC1CC1)CC1CC1)c1ccc(Oc2ccccc2Cl)cc1
- IC50: 67.1 µM

SMILES: O=C(NCc1nnn[nH]1)c1cc(Cl)ccc1NS(=O)(=O)c1ccc(Oc2ccccc2Cl)cc1
- IC50: 64.5 µM

SMILES: CCc1ccc([C@@H](NC(=O)OCc2ccccc2)C(=O)Nc2cccc(CN)c2)cc1
- IC50: > 99.5 µM

SMILES: NCc1ccc(-c2ccc(OCC3CCNCC3)nc2-c2ccc(-c3ccoc3)cc2)cc1
- IC50: 67.1 µM

SMILES: NCc1cccc(NC(=O)[C@@H](NC(=O)OCc2ccccc2)c2ccc(-c3cccc4c3CCO4)cc2)c1
- IC50: 27.8 µM

SMILES: Nc1ccc(CNC(=O)[C@@H](NC(=O)OCc2ccccc2)c2ccc(OCc3ccccc3)cc2)nc1
- IC50: > 99.5 µM

SMILES: NCc1cccc(NC(=O)[C@@H](NC(=O)OCc2ccccc2)c2ccc(-c3cccc(F)c3)cc2)c1
- IC50: 8.05 µM and 6.08 µM and 6.21 µM
